Data reported in patent US20260325473A1, “N-Beta-Hydroxybutyryl-Amino Acids and Related Compositions and Methods” (The Board of Trustees of the Leland Stanford Junior …, priority 2023, published 2026).
One block for each molecule: values may come before it.

What was measured:
CNDP2 [1] = molecular target: T1, CNDP2 (Mus musculus, UniProt Q9D1A2); assay: In vitro synthase (condensation) activity, lysates of CNDP2-transfected HEK293T cells; assay type: biochemical; parameters: expressed in transfected cells; host or cells: HEK293T (lysate); conditions: role: substrate; for amino acid selectivity for the BHB-ylation reaction: amino acid 20 mM with BHB 20 mM
T1 sequence (Q9D1A2 1-475): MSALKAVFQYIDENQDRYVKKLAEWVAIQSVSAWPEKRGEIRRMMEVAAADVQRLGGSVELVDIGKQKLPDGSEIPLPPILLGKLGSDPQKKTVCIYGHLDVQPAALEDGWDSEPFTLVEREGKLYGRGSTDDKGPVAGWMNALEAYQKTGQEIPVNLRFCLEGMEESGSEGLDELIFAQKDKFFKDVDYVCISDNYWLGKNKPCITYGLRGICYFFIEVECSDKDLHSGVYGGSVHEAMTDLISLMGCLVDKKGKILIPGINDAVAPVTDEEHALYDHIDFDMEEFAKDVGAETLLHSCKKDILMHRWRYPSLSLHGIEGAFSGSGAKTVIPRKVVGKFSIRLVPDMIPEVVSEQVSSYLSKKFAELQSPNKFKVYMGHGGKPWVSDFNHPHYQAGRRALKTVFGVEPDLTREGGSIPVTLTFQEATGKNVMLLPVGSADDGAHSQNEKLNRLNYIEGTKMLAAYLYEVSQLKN
Description: In vitro enzyme activity assays. HEK293T cells were transfected with GFP, CNDP2 or CNDP2-E166A using PolyFect (Qiagen 301105) according to the manufacturer's instructions. The medium was changed one day post-transfection. After an additional 24 h, the cells were harvested in PBS, lysed by sonication and centrifuged (10 min at 15,000 rpm) to remove debris. Supernatant was collected and protein concentrations were adjusted. The in vitro reactions were conducted in Eppendorf tubes with 100 μL of 1 mg/mL protein and 20 mM substrates for keto amino acid synthase activity assays and. Reactions were incubated for 1 h at 37° C. and 20 μl of 1 M HCl were added to acidify the medium and to protonate keto amino acids. Reactions were vortexed and 400 μL of ethyl acetate were added to each reaction. Reactions were vortexed for 30 s to extract keto amino acids into the organic layer and centrifuged at 4° C. for 10 min at 15,000 r.p.m. A total of 300 μl from the top layer was transferred to a new Eppendorf tube and dried down under a stream of nitrogen. The residue was re-suspended in 150 μl of an 2:1:1 mixture of acetonitrile: methanol: water. The mixture was centrifuged at 4° C. for 10 min at 15,000 r.p.m. and the supernatant was transferred to a LC-MS vial.

CNDP2 [2] = molecular target: T1, CNDP2; assay: Carnosine hydrolysis (carnosinase activity) in WT or CNDP2-KO mouse tissue lysates; assay type: biochemical; conditions: role: substrate, 10 mM carnosine
Description: (§1) Tissue enzyme activity assays. Mouse tissues were mixed with cold PBS and homogenized using a Benchmark BeadBlaster Homogenizer at 4 °C. Protein concentrations were adjusted and the resulting crude was filtered through a 0.45-μm filter to remove insoluble materials. The in vitro reactions were conducted in Eppendorf tubes with 200 μg protein and incubation with the corresponding substrates at 37° C. for 1 hour. After that time, 10 μl of HCl and 400 μl of ethyl acetate were added in the BHB and lactate reactions and the samples were vortexed for 30 s. Reactions were centrifuged at 4° C. for 10 min at 15,000 r.p.m. and total of 300 μl from the top layer was transferred to a new Eppendorf tube and dried down under a stream of nitrogen. The residue was re-suspended in 100 μl of an 2:1:1 mixture of acetonitrile: methanol: water. The mixture was centrifuged at 4° C. for 10 min at 15,000 r.p.m. and the supernatant was transferred to a LC-MS vial. For carnosine reactions, the reactions were not acidified and were directly quenched with 300 μl of an 2:1:1 mixture of acetonitrile: methanol: water after the 1 h incubation and vortexed for 30 s. The mixture was centrifuged at 4° C. for 10 min at 15,000 r.p.m. and the supernatant was transferred to a LC-MS vial.

[3] = Human ketone ester supplementation study, plasma metabolites; assay type: in vivo; conditions: ketone ester drink cohort
Description: (§2) Targeted metabolomics. Targeted measurements were performed using an Agilent 6470 triple quadrupole LC-MS instrument. MS analysis was performed using AJS in negative mode. The AJS source parameters were set as follows: the dry gas temperature was set at 250° C. with a gas flow of 12 l/min and the nebulizer pressure at 25 psi; the sheath gas temperature was set to 300° C. with the sheath gas flow set at 12 l/min; and the capillary voltage was set to 3,500 V. Separation of polar metabolites was performed as described above in the ‘Untargeted measurements of metabolites by LC-MS’ section. Multiple reaction monitoring was performed for the indicated metabolites with the listed dwell times, fragmentor voltage, collision energies, cell accelerator voltages and polarities. Quantification of the endogenous metabolite concentrations were performed by generating a standard curve with known concentrations of each metabolite. Metabolite standards were analyzed alongside the plasma samples using the same targeted triple quadrupole LC/MS method. A calibration standard curve generated from the metabolite standard concentrations and total peak areas were used to calculate the concentrations of each endogenous metabolite. The dilution of the plasma during the sample preparation was also taken into account for the quantification.
Human ketone ester supplementation study. Following screening, eligible subjects participated in a randomized, counter-balanced, double-blind, placebo-controlled crossover trial comparing BHB supplementation versus placebo, separated by a minimum of 2 days (ClinicalTrials.gov ID NCT04194450). Pre-menopausal women were tested in the follicular phase (days 3-9). Participants were asked to refrain from structured exercise and alcohol, limit physical activity, and follow a standardized diet (~50% carbohydrate, ~30% fat, ~20% protein) on the day before each trial. After refraining from medication use for 24 hours, participants reported to the Exercise, Metabolism and Inflammation Laboratory at the University of British Columbia-Okanagan in an overnight fasted state. Anthropometric measurements were obtained prior to insertion of an indwelling intravenous catheter into the antecubital vein for repeated blood sampling. Blood was collected into EDTA tubes (BD, 367863) and immediately centrifuged at 2000 rpm for 15 min and the top layer of plasma was aliquoted and frozen at −80 °C. After baseline (0) blood sample collection, the oral BHB supplement or placebo was consumed in liquid form (~30-65 mL). The BHB supplement (H.V.M.N®, USA) in the form of the ketone monoester (R)-3-hydroxybutyl (R)-3-hydroxybutyrate (AG®, TDeltaS, Oxford, UK) contained 0.4 g mL-1 BHB, natural flavoring, and <2% stevia leaf extract. The taste-matched placebo drink contained the same natural flavoring as the ketone supplement, stevia leaf extract, 5 mL of Bittrex stock (0.005 g of denatonium benzoate powder in 40 ml of water) and 1.5 mL of arrowroot stock (2 g of arrowroot powder in 50 ml of water) to match the bitter flavor and viscosity of the ketone monoester. Supplements were dispensed into opaque 80 ml bottles with volume calculated for 0.3 g BHB/kg body weight and labelled either A or B by a third-party researcher. Blinding was maintained until completion of data collection and analyses.

[4] = Keto-Med study, plasma metabolites; assay type: in vivo; conditions: human; 4 weeks WFKD vs baseline
Description: as §2
Keto-Med study. Keto-Med was a single-site, randomized, crossover, interventional trial comparing 2 metabolically distinct diets (well-formulated ketogenic diet, WFKD; and Mediterranean-plus diet, Med-Plus) among individuals with prediabetes and T2DM. Forty participants aged ≥18 years with prediabetes or T2DM followed the WFKD and the Med-Plus for 12 weeks each, in random order. Participants were randomly assigned into 1 of 2 different diet sequences: WFKD for 12 weeks (phase 1) and then the Med-Plus for 12 weeks (phase 2), or the opposite order. Ad libitum intake was advised, and participants were guided to follow 2 sets of dietary guidelines that shared 3 important similarities (incorporating nonstarchy vegetables and avoiding added sugars and refined grains) and 3 important differences (incorporating compared with avoiding legumes, fruits, and whole, intact grains). During the WFKD phase, participants were counseled to sustain nutritional ketosis by limiting carbohydrates to 20-50 g/day and keeping proteins to ~1.5 g/kg ideal body weight/day, with the remaining kcals coming from fats. Participants were also instructed to consume >3 servings/day of nonstarchy vegetables and maintain adequate mineral and fluid intake for the ketogenic state (sodium, 3-5 g/day; potassium, 3-4 g/day). […]

DIO mice = assay: Chronic administration in DIO mice: body weight and food intake; assay type: in vivo, mouse; conditions: for body weight, head-to-head keto amino acids: 5 days, vs vehicle
Description: General animal information. Animal experiments were performed according to procedure approved by the Stanford University Administrative Panel on Laboratory Animal Care (APLAC). Mice were maintained in 12-hr light-dark cycles at 22° C. and ~50% relative humidity and fed a standard irradiated rodent chow diet. Where indicated, high-fat diet (D12492, Research Diets 60% kcal from fat) and ketogenic diet (D06040601, Research Diets, 80% kcal fat/15% kcal protein/5% kcal carbohydrate) was used. Male C57BL/6J (stock no. 000664) and male C57BL/6J DIO mice (stock no. 380050) were purchased from Jackson Laboratory. Male C57BL/6NCrl (stock no. 027) mice were purchased from Charles River Laboratory. Whole body CNDP2-KO mice (catalog number, C57BL/6NCrl-Cndp2em1 (IMPC) Mbp/Mmucd, RRID: MMRRC_043492-UCD) were obtained from the Mutant Mouse Regional Resource Center, a NCRR-NIH funded strain repository. For in vivo injection of mice with metabolites, compounds were dissolved in 18:1:1 (by volume) of saline/Kolliphor EL (Sigma Aldrich)/DMSO. Compounds were administered to mice daily via intraperitoneal injections at 5 μl/g body weight at the indicated doses. For all injection experiments, mice were mock injected with the vehicle for 3-5 days until body weights have stabilized. Sample sizes were determined on the basis of previous experiments using similar methodologies. For metabolite administration experiments, mice were randomly assigned to treatment groups. Experimenters were not blinded to groups.

CNDP2 [5] = molecular target: T1, CNDP2; assay: Tissue enzyme activity, WT or CNDP2-KO mouse tissue lysates; assay type: biochemical; conditions: role: product, BHB 20 mM + amino acid 20 mM; for synthesis activity in WT kidney and gut: 1 h, 37° C
Description: as §1

Structure (SMILES): NCCC(=O)N[C@@H](Cc1cnc[nH]1)C(=O)O [carnosine]
carnosine hydrolysis across tissues (CNDP2 [2]): highest activity in liver and quadriceps and little activity in the kidney, gut, and brain
carnosinase activity, effect of CNDP2 ablation (CNDP2 [2]; CNDP2-KO vs WT): not sensitive to genetic ablation of CNDP2

Structure (SMILES): C[C@@H](O)CC(=O)N[C@H](C(=O)O)[C@@H](C)O [Keto-Thr]
induction by ketone ester drink [3]: had not been observed to be induced by ketone ester drink
induction of plasma keto amino acids on WFKD [4]: Robust induction

Structure (SMILES): CC(C)C[C@H](NC(=O)CC(C)O)C(=O)O (some centres unmarked) [BHB-Leu, N-betahydroxybutyryl-leucine]
BHB-amino acid synthesis activity in CNDP2-KO kidney and gut (CNDP2 [5]): largely abolished
synthesis activity in WT kidney and gut (CNDP2 [5]): highest BHB-amino acid synthesis activity
body weight, head-to-head keto amino acids (DIO mice; 50 mg/kg/day IP): effective in suppressing body weight

Structure (SMILES): C[C@@H](O)CC(=O)N[C@@H](CCC(N)=O)C(=O)O [Keto-Gln]
induction by ketone ester drink [3]: had not been observed to be induced by ketone ester drink
induction of plasma keto amino acids on WFKD [4]: Robust induction

Structure (SMILES): CSCC[C@H](NC(=O)CC(C)O)C(=O)O (some centres unmarked) [BHB-Met, N-betahydroxybutyryl-methionine]
BHB-amino acid synthesis activity in CNDP2-KO kidney and gut (CNDP2 [5]): largely abolished
synthesis activity in WT kidney and gut (CNDP2 [5]): highest BHB-amino acid synthesis activity
body weight, head-to-head keto amino acids (DIO mice; 50 mg/kg/day IP): effective in suppressing body weight

Structure (SMILES): CC(CO)C(=O)O (centres unmarked) [3-HIB, 3-hydroxisobutyric acid]
CNDP2-dependent condensation activity with C4-hydroxycarboxylic acid isomers (CNDP2 [1]; with phenylalanine): not detected

Structure (SMILES): CC(O)CC(=O)N[C@@H](Cc1c[nH]cn1)C(=O)O (some centres unmarked) [BHB-His]
food intake and body weight, related metabolites and dipeptides (DIO mice; 50 mg/kg IP, 9 days): failed to reduce food intake or body weight

Second part, led by results:

product formed with lactate and phenylalanine as only substrates (CNDP2 [1]; lactate alone with 20 mM phenylalanine): exclusive production of Lac-Phe
Structure (SMILES): C[C@H](O)C(=O)O [lactate]

amino acid selectivity for the BHB-ylation reaction (CNDP2 [1]): CNDP2 catalyzed BHB-ylation
Structure (SMILES): N[C@@H](Cc1ccccc1)C(=O)O [phenylalanine, reference compound]
body weight and food intake, conjugate vs components (DIO mice; 50 mg/kg/day IP, BHB or phenylalanine at the same doses, 9 days): without effect

amino acid selectivity for the BHB-ylation reaction (CNDP2 [1]): CNDP2 catalyzed BHB-ylation
Structure (SMILES): CC(C)[C@H](N)C(=O)O [valine]

amino acid selectivity for the BHB-ylation reaction (CNDP2 [1]): CNDP2 catalyzed BHB-ylation
Structure (SMILES): CC(C)C[C@H](N)C(=O)O [leucine]

amino acid selectivity for the BHB-ylation reaction (CNDP2 [1]): CNDP2 catalyzed BHB-ylation
Structure (SMILES): CC[C@H](C)[C@H](N)C(=O)O [isoleucine]
